Source: patent US20230365571A1, “COMPOUNDS AND COMPOSITIONS AS Sppl2a INHIBITORS” (Novartis AG, priority 2020, published 2023)
pIC50: −log10 of the molar value.

Experiments:
Type in all cases: cell-based
Sppl2a CD74 = molecular target: T1, Sppl2a CD74 (Mus musculus, UniProt Q9JJF9); assay: CD74/p8 mouse whole blood assay, flow cytometry format; details: Balb/c mouse whole blood, 5 h, CD74 signal on gated live B cells
T1 construct: Mouse whole blood Balb/c mice (sodium citrate) was ordered by Bioreclamation LLC; tissue Bioreclamation LLC
T1 sequence (Q9JJF9 26-523): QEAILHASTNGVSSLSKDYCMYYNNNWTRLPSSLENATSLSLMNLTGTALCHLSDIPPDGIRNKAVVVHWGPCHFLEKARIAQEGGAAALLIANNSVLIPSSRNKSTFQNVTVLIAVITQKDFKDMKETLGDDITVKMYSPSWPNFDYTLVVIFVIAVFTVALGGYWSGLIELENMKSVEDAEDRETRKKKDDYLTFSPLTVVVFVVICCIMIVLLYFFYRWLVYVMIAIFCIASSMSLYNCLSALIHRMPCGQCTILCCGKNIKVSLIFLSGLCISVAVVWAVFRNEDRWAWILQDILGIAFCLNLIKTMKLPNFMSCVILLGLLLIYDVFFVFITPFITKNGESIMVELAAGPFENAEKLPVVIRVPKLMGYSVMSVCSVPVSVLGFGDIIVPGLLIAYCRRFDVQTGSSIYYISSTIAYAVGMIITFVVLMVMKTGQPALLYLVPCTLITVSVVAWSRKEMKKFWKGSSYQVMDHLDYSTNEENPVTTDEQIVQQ
Method: CD74/p8 Mouse Whole Blood Assay: Flow Cytometry Format
Mouse whole blood Balb/c mice (sodium citrate) was ordered by Bioreclamation LLC; USA. The blood was used the next day upon receipt (stored at 4° C.). 100 μL blood were transferred in 96 well format plate, where compounds, an 11 point dilutions down from 30 μM, to be tested were previously deposited. The plate was incubated for 5 h in the incubator at 37° C., 5% CO2 under continuous motion. After the incubation the blood was diluted with RBC Lysis Buffer (Amined; Cat. Nr 3-13F00-H or BD; Cat. Nr 555899). The solution was mixed by pipetting and incubated 10 min in the 37° C. incubator. The white blood cells were sedimented for 3 min at 2000 rpm. After removing the supernatant the cell pellet was resuspended and washed twice in RCB Buffer and kept≈ 5 min at room temperature, followed by a centrifugation for 2 min at 2000 rpm. The cell pellet was then resuspend in D-PBS and centrifuged twice. Finally, the cells were taken up in of D-PBS/0.5% inactivated fetal bovine serum/2 mM EDTA. The cell suspension was treated with Live/Dead fixable stain (Life Technologies, >470 nm version), B cells were identified by surface staining with an anti-B220 antibody coupled to APC fluorofor. After staining, the cells were extensively washed with PBS. The cells were permeabilized and fixed in FACS lysing buffer; (BD; #349202, dil 1:10 in water) and labelled with an anti CD74, FITC labelled antibody, washed once more with diluted FACS lysing buffer and spin down. The cell pellet was washed with D-PBS/0.5% inactivated fetal bovine serum/2 mM EDTA and PBS prior to the analysis in a flow cytometer. The compound concentrations were plotted against the intensity (medium fluorescence intensity) of the CD74 signal on the gated life B cell and IC50 were determined by fitting data for a 11 concentrations dose response.

human SPPL2a [1] = molecular target: T2, human SPPL2a (Homo sapiens, UniProt Q8TCT8); assay: Sppl2a RGA (reporter gene assay) in HEK293 cells; set-up: expressed in transfected cells; host or cells: HEK293 (transient); details: NT-TNF-VP16-Gal4 substrate, Gal4-luciferase reporter, 24 h
T2 sequence (Q8TCT8 26-520): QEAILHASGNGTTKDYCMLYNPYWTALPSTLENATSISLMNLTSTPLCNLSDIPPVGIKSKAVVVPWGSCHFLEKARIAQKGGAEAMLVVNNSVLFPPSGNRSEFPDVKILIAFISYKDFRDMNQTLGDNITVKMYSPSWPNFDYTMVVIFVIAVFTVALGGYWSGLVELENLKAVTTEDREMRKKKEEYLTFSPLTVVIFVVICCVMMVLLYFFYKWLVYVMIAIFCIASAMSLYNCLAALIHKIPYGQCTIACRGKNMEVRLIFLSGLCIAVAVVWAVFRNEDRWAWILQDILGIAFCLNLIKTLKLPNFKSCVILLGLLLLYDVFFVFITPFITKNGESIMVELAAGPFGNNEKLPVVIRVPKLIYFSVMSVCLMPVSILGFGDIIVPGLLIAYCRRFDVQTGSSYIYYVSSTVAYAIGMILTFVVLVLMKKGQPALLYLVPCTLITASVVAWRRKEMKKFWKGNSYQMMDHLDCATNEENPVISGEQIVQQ
Procedure, shortened: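 HEK293 cells transiently co-transfected with human SPPL2a, NT-TNF-VP16-Gal4 substrate and Gal4-luciferase reporter, compound added within 5 h. After 24 h at 37 °C, luciferase luminescence measured; IC50 from concentration versus normalized luminescence.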

human SPPL2a [2] = molecular target: T2, human SPPL2a; assay: Sppl2a TL (translocation) imaging assay in U-2 OS cells; set-up: expressed in transfected cells; details: U-2 OS cells expressing human SPPL2a and EGFP-TNFα(aa1-76) NTF substrate; 24 h
Procedure, shortened: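 U-2 OS cells stably expressing human SPPL2a plus doxycycline-induced EGFP-TNFα(aa1-76) NTF, treated 24 h at 37 °C with inhibitor (100 μM–1 nM, 11 points, 0.9% DMSO, 5 μg/mL doxycycline). Imaging of nuclear-minus-cytoplasmic EGFP intensity; % inhibition versus 0.5 μM LY-411,575 and DMSO, IC50 by nonlinear regression; CC50 from cell count.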

Structure (SMILES) | pIC50 (Sppl2a CD74) | pIC50 (human SPPL2a [1]) | pIC50 (human SPPL2a [2])
CC(C)NC(=O)c1nc(Cl)c(C(=O)NC[C@@H](C)C(=O)N[C@@H]2C(=O)N3CCCN3Cc3ccccc32)s1 [Example 22, 4-Chloro-N^2-isopropyl-N^5-((R)-2-methyl-3-oxo-3-(((S)-11-oxo-2,3,10,11-tetrahydro-1H,5H-benzo[d]pyrazolo [1,2-a][1,2]diazepin-10-yl)amino)propyl) thiazole-2,5-dicarboxamide] | 5.52 | 7.92 | 7.85
CC[C@H](CNC(=O)c1sc(-c2ccno2)nc1C)C(=O)N[C@@H]1C(=O)N2CCCN2Cc2ccccc21 [Example 32, 2-(Isoxazol-5-yl)-4-methyl-N-((R)-2-(((S)-11-oxo-2,3,10,11-tetrahydro-1H,5H-benzo[d]pyrazolo [1,2-a][1,2]diazepin-10-yl)carbamoyl)butyl) thiazole-5-carboxamide] | 6.76 | 8.00 | 7.43
CC[C@H](CNC(=O)c1sc(C(=O)NC)nc1C)C(=O)N[C@@H]1C(=O)N2CCCN2Cc2ccccc21 [Example 13, N^2,4-Dimethyl-N^5-((R)-2-(((S)-11-oxo-2,3,10,11-tetrahydro-1H,5H-benzo[d]pyrazolo [1,2-a][1,2]diazepin-10-yl)carbamoyl)butyl) thiazole-2,5-dicarboxamide] | 6.79 | 8.10 | 8.22
C[C@@H](CF)NC(=O)c1cc(NC(=O)C[C@H](C(=O)N[C@@H]2C(=O)N3CCCN3Cc3c(F)cccc32)C2CC2)n(C)n1 [Example 100, (S)-2-Cyclopropyl-N^1-((S)-6-fluoro-11-oxo-2,3,10,11-tetrahydro-1H,5H-benzo[d]pyrazolo [1,2-a][1,2]diazepin-10-yl)-N^4-(3-(((S)-1-fluoropropan-2-yl)carbamoyl)-1-methyl-1H-pyrazol-5-yl)succinamide] | 6.57 | 7.55 | 7.82
CC(C)NC(=O)c1ncc(NC(=O)C[C@@H](C)C(=O)N[C@@H]2C(=O)N3CCCN3Cc3ccccc32)s1 [Example 91, (R)-N^4-(2-(Isopropylcarba-moyl)thiazol-5-yl)-2-methyl-N^1-((S)-11-oxo-2,3,10,11-tetrahydro-1H,5H-benzo[d]pyrazolo [1,2-a][1,2]diazepin-10-yl)succinamide] | 6.30 | 7.62 | 7.96
CCNC(=O)c1nc(C)c(C(=O)NC[C@@H](CC)C(=O)N[C@@H]2C(=O)N3CCCN3Cc3ccccc32)s1 [Example 10, N^2-Ethyl-4-methyl-N^5-((R)-2-(((S)-11-oxo-2,3,10,11-tetrahydro-1H,5H-benzo[d]pyrazolo [1,2-a][1,2]diazepin-10-yl)carbamoyl)butyl) thiazole-2,5-dicarboxamide] | 6.54 | 8.30 | 8.40
Cc1cc(-c2nc(C)c(C(=O)NC[C@H](C(=O)N[C@@H]3C(=O)N4CCCN4C(=O)c4ccccc43)C3CC3)s2)on1 [Example 41, N-((R)-2-Cyclopropyl-3-(((S)-5,11-dioxo-2,3,10,11-tetrahydro-1H,5H-benzo[d]pyrazolo [1,2-a][1,2]diazepin-10-yl)amino)-3-oxopropyl)-4-methyl-2-(3-methylisoxazol-5-yl)thiazole-5-carboxamide] | – | 7.43 | 7.23
CC[C@H](CNC(=O)c1ccnn1C(F)F)C(=O)N[C@@H]1C(=O)N2CC3(CC3)CN2C(=O)c2ccccc21 [Example 56, 1-(Difluoromethyl)-N-((R)-2-(((S)-5,11-dioxo-10,11-dihydro-1H,3H,5H-spiro[benzo[d]pyr-azolo[1,2-a][1,2]diazepine-2,1′-cyclopropan]-10-yl)carbamoyl)butyl)-1H-pyrazole-5-carboxamide] | – | 7.00 | 6.72
CCc1cc(-c2cc(NC(=O)C[C@@H](C)C(=O)N[C@@H]3C(=O)N4CCCN4Cc4ccccc43)n(C)n2)no1 [Example 81, (R)-N^4-(3-(5-Ethylisoxazol-3-yl)-1-methyl-1H-pyrazol-5-yl)-2-methyl-N^1-((S)-11-oxo-2,3,10,11-tetrahydro-1H,5H-benzo[d]pyrazolo [1,2-a][1,2]diazepin-10-yl)succinamide] | – | 8.30 | 8.10

The remaining molecules from weak to strong by pIC50 (human SPPL2a [1]), led by results:

pIC50 (Sppl2a CD74) | pIC50 (human SPPL2a [1]) | pIC50 (human SPPL2a [2]) | Structure (SMILES)
– | 7.37 | 8.22 | C[C@@H](CF)NC(=O)c1cc(NC(=O)C[C@H](C(=O)N[C@@H]2C(=O)N3CCCN3Cc3ccccc32)C2CC2)n(C)n1 [Example 78, (S)-2-Cyclopropyl-N^4-(3-(((S)-1-fluoropropan-2-yl)carbamoyl)-1-methyl-1H-pyrazol-5-yl)-N^1-((S)-11-oxo-2,3,10,11-tetrahydro-1H,5H-benzo[d]pyrazolo [1,2-a][1,2]diazepin-10-yl)succinamide]
6.00 | 7.68 | 7.80 | Cc1cc(-c2nc(C)c(C(=O)NC[C@@H](C)C(=O)N[C@@H]3C(=O)N4CCCN4Cc4ccccc43)s2)on1 [Example 23, 4-Methyl-N-((R)-2-methyl-3-oxo-3-(((S)-11-oxo-2,3,10,11-tetrahydro-1H,5H-benzo[d]pyrazolo [1,2-a][1,2]diazepin-10-yl)amino)propyl)-2-(3-methylisoxazol-5-yl)thiazole-5-carboxamide]
– | 7.89 | 8.40 | Cc1cncc(-c2cc(NC(=O)C[C@@H](C)C(=O)N[C@@H]3C(=O)N4CCCN4Cc4ccccc43)n(C)n2)c1 [Example 74, (R)-2-Methyl-N^4-(1-methyl-3-(5-methylpyridin-3-yl)-1H-pyrazol-5-yl)-N^1-((S)-11-oxo-2,3,10,11-tetrahydro-1H,5H-benzo[d]pyrazolo [1,2-a][1,2]diazepin-10-yl)succinamide]
6.64 | 8.52 | 9.00 | CC(C)NC(=O)c1nc(Cl)c(NC(=O)C[C@@H](C)C(=O)N[C@@H]2C(=O)N3CCCN3Cc3ccccc32)s1 [Example 64, (R)-N^4-(4-Chloro-2-(isopropylcarba-moyl)thiazol-5-yl)-2-methyl-N^1-((S)-11-oxo-2,3,10,11-tetrahydro-1H,5H-benzo[d]pyrazolo [1,2-a][1,2]diazepin-10-yl)succinamide]
6.57 | 8.52 | 8.15 | Cc1nc(C(=O)NC(C)C)sc1C(=O)NC[C@H](C(=O)N[C@@H]1C(=O)N2CCCN2Cc2ccccc21)C(F)(F)F [Example 14, N^2-Isopropyl-4-methyl-N^5-((R)-3,3,3-trifluoro-2-(((S)-11-oxo-2,3,10,11-tetrahydro-1H,5H-benzo[d]pyrazolo [1,2-a][1,2]diazepin-10-yl)carbamoyl)pro-pyl)thiazole-2,5-dicarboxamide]
